# Results reported in US10538567B2, “Compounds as peptidic trigonal GLP1/glucagon/GIP receptor agonists” (priority 2016, dated 2020).
# Numbered stars: 1 amine (or outer) side, 2 acyl side, 3 side chain; on linkers, the order of the positions; unused ones are H or OH. Square brackets hold non-standard residues; d marks the D form. Side chains are listed from the residue outwards. Peptide text beside a SMILES is read from it. * marks the point of attachment. γGlu = O=C(O)[C@H](CCC(=O)[*:2])N[*:1]; Stearoyl = CCCCCCCCCCCCCCCCCC(=O)*; Palmitoyl = CCCCCCCCCCCCCCCC(=O)*; AEEA = NCCOCCOCC(=O)O; Aib = CC(C)(N)C(=O)O
# Test system: not listed separately
# Experiment: Thioflavin T (ThT) assay for physical stability (fibrillation)
# Assay type: physicochemical
# Conditions: 3 mg/ml, 100 mM acetate pH 4.5 with m-cresol, 37° C. shaking
# From the text: Low physical stability of a peptide solution may lead to amyloid fibril formation, which is observed as well-ordered, thread-like macromolecular structures in the sample, which eventually may lead to gel formation. Thioflavin T (ThT) is widely used to visualize and quantify the presence of misfolded protein aggregates. [Biancalana et al. (2010) Biochimica et Biophysica Acta. 1804 (7): 1405-1412]. […] Enzymol. 309, 274-284]. The time course for fibril formation often follows the characteristic shape of a sigmoidal curve and can be separated into three regions: a lag phase, a fast growth phase, and a plateau phase.
# The typical fibril formation process starts with the lag phase in which the amount of partially folded peptide turned into fibrils is not significant enough to be detected. The lag-time corresponds to the time the critical mass of the nucleus is built. Afterwards, a drastic elongation phase follows and fibril concentration increases rapidly.
# Investigations were carried out to determine fibrillation tendencies under stress conditions by shaking at 37° C. within Fluoroskan Ascent FL.
# For the tests in Fluoroskan Ascent FL, 200 μL sample were placed into a 96 well mictrotiter plate PS, flat bottom, Greiner Fluotrac No. 655076. Plates were sealed with Scotch Tape (Quiagen). Samples were stressed by continuous cycles of 10 s shaking at 960 rpm and 50 s rest period at 37° C. The kinetic was monitored by measuring fluorescence intensity every 20 minutes.
# Peptides were diluted in a buffer system to a final concentration of 3 mg/ml. 20 μL of a 10.1 mM ThT solution in H2O were added to 2 mL of peptide solution to receive a final concentration of 100 μM ThT. For each sample eight replicates were tested.
# Tht buffer system A) 100 mM Acetate pH 4.5 including m-cresol (100 mM Natriumacetat trihydrat, pH adjustment using 2N CH3COOH, 2.7 mg/mL m-cresol) Tht buffer system B) 100 mM citrate buffer pH 6.0
# Lag time in hours in Thioflavin T (ThT) assay of peptide samples was determined in ThT buffer system A as described in Methods.
row,Lag time before increase [h],Compound
1,>45,"CCCCCCCCCCCCCCCCCC(=O)N[C@@H](CCC(=O)NCCCC[C@H](NC(=O)[C@H](CC(C)C)NC(=O)[C@H](CCCCN)NC(=O)[C@H](CO)NC(=O)[C@H](CC(C)C)NC(=O)[C@H](CC(=O)O)NC(=O)[C@H](CO)NC(=O)[C@@H](NC(=O)[C@H](Cc1ccccc1)NC(=O)[C@@H](NC(=O)CNC(=O)[C@H](Cc1c[nH]cn1)NC(=O)C(C)(C)NC(=O)[C@@H](N)Cc1c[nH]cn1)[C@@H](C)O)[C@@H](C)O)C(=O)N[C@@H](CCC(=O)O)C(=O)N[C@@H](CCC(=O)O)C(=O)N[C@@H](CCC(N)=O)C(=O)N[C@@H](CCCNC(=N)N)C(=O)N[C@@H](CCC(N)=O)C(=O)NC(C)(C)C(=O)N[C@@H](CCC(=O)O)C(=O)N[C@@H](Cc1ccccc1)C(=O)N[C@H](C(=O)N[C@@H](CCC(=O)O)C(=O)N[C@@H](Cc1c[nH]c2ccccc12)C(=O)N[C@@H](CC(C)C)C(=O)N[C@@H](CCCCN)C(=O)N[C@@H](C)C(=O)NCC(=O)NCC(=O)N1CCC[C@H]1C(=O)N1CCC[C@H]1C(=O)N[C@@H](CO)C(=O)NC(C)(C)C(=O)N[C@@H](CCCCN)C(=O)N1CCC[C@H]1C(=O)N1CCC[C@H]1C(=O)N1CCC[C@H]1C(=O)N[C@@H](CCCCN)C(N)=O)[C@@H](C)CC)C(=O)O [SEQ ID NO: 19, H-Aib-H-G-T-F-T-S-D-L-S-K-L-K[gGlu-Stea]-E-E-Q-R-Q-Aib-E-F-I-E-W-L-K-A-G-G-P-P-S-Aib-K-P-P-P-K-NH2] (H-H[Aib]HGTFTSDLSKLK([γGlu-Stearoyl])EEQRQ[Aib]EFIEWLKAGGPPS[Aib]KPPPK-NH2)"
2,>45,"CCCCCCCCCCCCCCCCCC(=O)N[C@@H](CCC(=O)NCCCC[C@H](NC(=O)[C@H](CC(C)C)NC(=O)[C@H](CCCCN)NC(=O)[C@H](CO)NC(=O)[C@H](CC(C)C)NC(=O)[C@H](CC(=O)O)NC(=O)[C@H](CO)NC(=O)[C@@H](NC(=O)[C@H](Cc1ccccc1)NC(=O)[C@@H](NC(=O)CNC(=O)[C@H](Cc1c[nH]cn1)NC(=O)C(C)(C)NC(=O)[C@@H](N)Cc1c[nH]cn1)[C@@H](C)O)[C@@H](C)O)C(=O)N[C@@H](CCC(=O)O)C(=O)N[C@@H](CCC(=O)O)C(=O)N[C@@H](CCC(N)=O)C(=O)N[C@@H](CCCNC(=N)N)C(=O)N[C@@H](CCC(N)=O)C(=O)NC(C)(C)C(=O)N[C@@H](CCC(=O)O)C(=O)N[C@@H](Cc1ccccc1)C(=O)N[C@H](C(=O)N[C@@H](CCC(=O)O)C(=O)N[C@@H](Cc1c[nH]c2ccccc12)C(=O)N[C@@H](CC(C)C)C(=O)N[C@@H](CCCCN)C(=O)N[C@@H](C)C(=O)N[C@H](C)C(=O)NCC(=O)N1CCC[C@H]1C(=O)N1CCC[C@H]1C(=O)N[C@@H](CO)C(=O)NC(C)(C)C(=O)N[C@@H](CCCCN)C(=O)N1CCC[C@H]1C(=O)N1CCC[C@H]1C(=O)N1CCC[C@H]1C(=O)N[C@@H](CCCCN)C(N)=O)[C@@H](C)CC)C(=O)O [SEQ ID NO: 17, H-Aib-H-G-T-F-T-S-D-L-S-K-L-K[gGlu-Stea]-E-E-Q-R-Q-Aib-E-F-I-E-W-L-K-A-dAla-G-P-P-S-Aib-K-P-P-P-K-NH2] (H-H[Aib]HGTFTSDLSKLK([γGlu-Stearoyl])EEQRQ[Aib]EFIEWLKA[dA]GPPS[Aib]KPPPK-NH2)"

# Test system: female diabetic db/db mice
# Experiment: Acute effects after s.c. treatment on blood glucose in non-fasting female diabetic db/db mice
# Assay type: in vivo
# Conditions: single 30 μg/kg s.c.
# Protocol: Female healthy, lean BKS.Cg-(lean)/OlaHsd and diabetes-prone, obese BKS.Cg-+Lepr^db/+Lepr^db/OlaHsd mice were ordered group housed from Envigo RMS Inc., shipped group housed and remained group housed in shoebox caging with wood chip bedding until day 15 of the predose phase. At the study start mice were approximately 12 weeks old.
# Mice were housed under vivarium conditions including a 12 h light/dark cycle (light phase 04:00 AM-4:00 PM), room temperatures between 23-26° C. and a relative humidity between 30-70%. All animals had free access to water and Purina Fomulab Diet 5008.
# On predose day 9 blood glucose and body mass (approximately between 08:00-10:00 AM) as well as HbA1c measurements were performed. On day 15 of the predose phase animals were assigned to treatment groups (n=8) and to new cages to match mean HbA1c and body masses between all db/db groups. An age-matched lean group was included in the study as a healthy, lean reference.
# Prior to day 1 of the dosing phase, the test article was diluted with Phosphate Buffered Saline (PBS, Gibco, without CaCl2 and MgCl2) to a concentration of 1 mg/mL and aliquots of this stock solution were stored at approximately ≤−60° C. On day 1 of the dosing phase the stock aliquot was thawed and the injected test article solution was prepared fresh by diluting it with PBS to achieve the desired concentration.
# On Day 1 of the dosing phase db/db mice were either treated once with a s.c. injection of PBS-vehicle or 30 μg/kg test article. The lean reference group was treated once with a s.c. injection of PBS-vehicle. The dosing was initiated and completed between 08:00 and 10:00 AM. The applied volume was 5 ml/kg and the dose was adjusted to the most recent body mass recording of each individual.
# Animals had unlimited access to water and feed during the experiment. On day 1 of the dosing phase approximately 5 μL of blood were collected via tail clips at minute −30 and 0 prior to any other inlife activities. At minute 0 mice received a s.c. dose of either PBS-vehicle or 30 μg/kg test article. Further blood samples were harvested at hour 0.25, 0.5, 1, 1.5, 2, 3, 4, 6, 8, and 24 post-dose. Glucose measurements were performed in whole blood using AlphaTRAK glucometers. If the glucose concentrations of two measurements differed by more than 20 mg/dL a third value was recorded. The Area Under the Curve (AUC) for blood glucose was calculated via the trapezoid method and for the duration of the 24 post-dose hours.
# In the Figures data are depicted as means±SEM. […] A One Way Analysis of Variance and multiple comparisons (Dunnett's Method) were performed comparing the group of diabetic, obese db/db vehicle mice (n=8) with each diabetic, obese db/db test article treated mice (n=8). […] Non-diabetic, lean-vehicle group data are depicted in the Figures serving as a reference dataset for the non-obese, non-diabetic state.
row,Compound,mean blood glucose concentration 24 hours post-dose relative to baseline
1,H-Aib-H-G-T-F-T-S-D-L-S-K-L-K[gGlu-gGlu-AEEA-Palm]-E-E-Q-R-Q-Aib-E-F-I-E-W-L-K-A-G-G-P-P-S-Aib-K-P-P-P-K-NH2 (H-H[Aib]HGTFTSDLSKLK([γGlu-γGlu-AEEA-Palmitoyl])EEQRQ[Aib]EFIEWLKAGGPPS[Aib]KPPPK-NH2) [SEQ ID NO: 26],at or close to baseline
